Measurements published in patent US20100173888A1 (Pfizer Inc, priority 2008, published 2010).
Structures can show the parent of a compound that is named as a salt.

What follows are molecules tested against human recombinant H-PGDS (Homo sapiens, UniProt O60760) (assay: Fluorescence intensity h-PGDS TBA enzyme assay (PGH2 depletion, MDA/TBA fluorescence)). Details: 1:175,000 human recombinant H-PGDS, 42 second reaction, 3-fold serial dilutions, highest concentration typically 1 μM.
Format: biochemical
Method: Fluoresecence Intensity h-PGDSTBA Enzyme Assay
Prostaglandin D Synthase (PGDS) converts the substrate prostaglandin H2 (PGH2) to prostaglandin D2. The depletion of PGH2 was measured via an Fe(II) reduction of the remaining PGH2 to malondialdehyde (MDA) and 12-HHT. The enzyme assay is based on the quantitative formation of a fluorescent complex from the non-fluorescent compounds MDA and 2-thiobarbituric acid (TBA), substantially as described in U.S. patent application publication US-2004/152148 by Lombardt.
The enzyme assay (31 μls) contained 100 mM Tris base pH 8.0, 100 μM MgCl2, 0.1 mg/ml IgG Rabbit serum, 5.0 μM PGH2 (Cayman; ethanol solution, #17020), 2.5 mM L-Glutathione (Sigma; reduced form. #G4251), 1:175,000 human recombinant H-PGDS (from 1 mg/ml), 0.5% DMSO and inhibitor (varying concentration). Three μls of diluted inhibitor (dissolved in DMSO) was plated into a 384-well assay plate followed by a 25 μl addition of an enzyme solution containing h-PGDS, Tris, MgCl2, IgG and L-Glutathione. After preincubation of inhibitor and enzyme solution for 10 minutes at room temperature, the reaction was initiated with a 3 μl addition of substrate solution in 10 mM HCl. The reaction was terminated after 42 second by the addition (3 μl) of stop buffer containing FeCl2 and citric acid. After addition of 45.5 μls of TBA plates were heated for one hour in a 70° C. oven. Plates were cooled at room temperature overnight and read on a plate reader the next day with excitation @ 530 nm and emission @ 565 nm.
IC50' s of inhibitors were calculated with a 4-parameter fit using 11 inhibitor concentrations in duplicate with 3-fold serial dilutions. Controls on each plate included no inhibitor (zero % effect) and an inhibitor 10-fold in excess of its' IC50 (100% effect). The highest inhibitor concentration tested was typically 1 μM.

human recombinant H-PGDS, sequence (O60760 whole entry): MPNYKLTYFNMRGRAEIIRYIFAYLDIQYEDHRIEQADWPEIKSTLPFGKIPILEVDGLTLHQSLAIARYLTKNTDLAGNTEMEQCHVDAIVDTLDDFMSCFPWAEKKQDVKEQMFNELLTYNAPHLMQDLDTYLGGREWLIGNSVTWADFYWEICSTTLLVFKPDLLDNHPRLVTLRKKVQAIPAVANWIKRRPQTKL

IC50 [nM]	SMILES
6.1	CC[C@H](O)C(=O)N[C@H]1CC[C@H](NC(=O)c2ccc(-c3cccc(F)c3)nc2)CC1 [Example 113L, 6-(3-fluorophenyl)-N-(trans-4-{[(2S)-2-hydroxybutanoyl]amino}cyclohexyl)nicotinamide]
7.6	Cc1ccnn1CC(=O)N[C@H]1CC[C@H](NC(=O)c2ccc(-c3cccc(F)c3)nc2)CC1 [Example 113M, 6-(3-fluorophenyl)-N-(trans-4-{[(5-methyl-1H-pyrazol-1-yl)acetyl]amino}cyclohexyl)nicotinamide]
11.5	COCC(=O)N[C@H]1CC[C@H](NC(=O)c2ccc(-c3cccc(F)c3)nc2)CC1 [Example 113N, 6-(3-fluorophenyl)-N-{trans-4-[(methoxyacetyl)amino]cyclohexyl}nicotinamide]
7.3	O=CN[C@H]1CC[C@H](NC(=O)c2ccc(-c3cccc(F)c3)nc2)CC1 [Example 113O, 6-(3-fluorophenyl)-N-(trans-4-formamidocyclohexyl)nicotinamide]
9.1	CC(=O)NC(C)(C)[C@H]1CC[C@H](NC(=O)c2ccc(-c3cccc(F)c3)nc2)CC1 [Example 113P, N-[trans-4-(1-acetamido-1-methylethyl)cyclohexyl]-6-(3-fluorophenyl)nicotinamide]
9.7	C[C@@H](N)C(=O)N[C@H]1CC[C@H](NC(=O)c2ccc(-c3cccc(F)c3)nc2)CC1 [Example 113Q, N-[trans-4-(D-alanylamino)cyclohexyl]-6-(3-fluorophenyl)nicotinamide]
13.8	C[C@H](N)C(=O)N[C@H]1CC[C@H](NC(=O)c2ccc(-c3cccc(F)c3)nc2)CC1 [Example 113R, N-[trans-4-(L-alanylamino)cyclohexyl]-6-(3-fluorophenyl)nicotinamide]
4.41	O=C(N[C@H]1CC[C@H](CO)CC1)c1cnc(-c2cccc(F)c2)c(Cl)c1 [Example 114, 5-Chloro-6-(3-fluorophenyl)-N-[trans-4-(hydroxymethyl)cyclohexyl]nicotinamide]
1.28	O=C(NC1CCC(F)(F)CC1)c1ccc(-c2cccc(F)c2)nc1 [Example 119, N-(4,4-Difluorocyclohexyl)-6-(3-fluorophenyl)nicotinamide]
1.77	O=C(NC1CCCc2ccccc21)c1ccc(-c2ccccc2)nc1 (stereo not drawn) [Example 120, 6-Phenyl-N-(1,2,3,4-tetrahydronaphthalen-1-yl)nicotinamide]
88	COc1cccc(-c2ccc(C(=O)NC3CCCc4ccccc43)cn2)c1 (stereo not drawn) [Example 121, 6-(3-Methoxyphenyl)-N-(1,2,3,4-tetrahydronaphthalen-1-yl)nicotinamide]
4.16	O=C(NC1CCCc2ccccc21)c1ccc(-c2cccc(F)c2)nc1 (stereo not drawn) [Example 122, 6-(3-Fluorophenyl)-N-(1,2,3,4-tetrahydronaphthalen-1-yl)nicotinamide]
30	O=C(NC1CCCc2ccccc21)c1ccc(-c2ccc(F)cc2)nc1 (stereo not drawn) [Example 123, 6-(4-Fluorophenyl)-N-(1,2,3,4-tetrahydronaphthalen-1-yl)nicotinamide]
22.7	O=C(NC1CCCc2ccccc21)c1ccc(-c2cc(F)cc(F)c2)nc1 (stereo not drawn) [Example 124, 6-(3,5-Difluorophenyl)-N-(1,2,3,4-tetrahydronaphthalen-1-yl)nicotinamide]
6.66	O=C(NC12CC(C1)C2)c1ccc(-c2cccc(F)c2)nc1 [Example 125, N-Bicyclo[1.1.1]pent-1-yl-6-(3-fluorophenyl)nicotinamide]
194	CC(C)n1ncc2c1CCCC2NC(=O)c1ccc(-c2cccc(F)c2)nc1 (stereo not drawn) [Example 129, 6-(3-Fluorophenyl)-N-(1-isopropyl-4,5,6,7-tetrahydro-1H-indazol-4-yl)nicotinamide]
52.3	O=C(N[C@@H]1CC[C@@H](O)C1)c1ccc(-c2cccc(F)c2)nc1 [Example 130A, 6-(3-fluorophenyl)-N-[(1R,3R)-3-hydroxycyclopentyl]nicotinamide]
16.4	N[C@H]1CC[C@H](NC(=O)c2ccc(-c3cccc(F)c3)nc2)CC1 [Example 142B, N-(trans-4-Aminocyclohexyl)-6-(3-fluorophenyl)nicotinamide]

IC50 [nM]	SMILES
7.2	CC(C)(O)C(=O)N[C@H]1CC[C@H](NC(=O)c2ccc(-c3cccc(F)c3)nc2)CC1 [Example 143, 6-(3-Fluorophenyl)-N-{trans-4-[(2-hydroxy-2-methylpropanoyl)amino]cyclohexyl}nicotinamide]
7.5	C[C@H](O)C(=O)N[C@H]1CC[C@H](NC(=O)c2ccc(-c3cccc(F)c3)nc2)CC1 [Example 144, 6-(3-Fluorophenyl)-N-(trans-4-{[(2S)-2-hydroxypropanoyl]amino}cyclohexyl)nicotinamide]
11.6	CN(C)CC(=O)N[C@H]1CC[C@H](NC(=O)c2ccc(-c3cccc(F)c3)nc2)CC1 [Example 145, N-{trans-4-[(N,N-Dimethylglycyl)amino]cyclohexyl}-6-(3-fluorophenyl)nicotinamide]
21	NCC(=O)N[C@H]1CC[C@H](NC(=O)c2ccc(-c3cccc(F)c3)nc2)CC1 [Example 146, 6-(3-Fluorophenyl)-N-[trans-4-(glycylamino)cyclohexyl]nicotinamide]
5.7	CC(=O)NC(C)[C@H]1CC[C@H](NC(=O)c2ccc(-c3cccc(F)c3)nc2)CC1 (stereo partly drawn) [Example 147, N-[trans-4-(1-Acetamidoethyl]cyclohexyl]-6-(3-fluorophenyl)nicotinamide]
8.9	CS(=O)(=O)NC[C@H]1CC[C@H](NC(=O)c2ccc(-c3cccc(F)c3)nc2)CC1 [Example 150, 6-(3-Fluorophenyl)-N-[trans 4(methanesulfonylaminomethyl)cyclohexyl]nicotinamide]
2.2	CC(C)(O)C[C@H]1CC[C@H](NC(=O)c2ccc(-c3cccc(F)c3)nc2)CC1 [Example 152, 6-(3-Fluorophenyl)-N-[4-(trans 2-hydroxy-2-methylpropyl)cyclohexyl]nicotinamide]
13.2	O=C(NC1CCC(O)(CN2CCCCC2)CC1)c1ccc(-c2cccc(F)c2)nc1 (stereo not drawn) [Example 153, 6-(3-Fluorophenyl)-N-(4-hydroxy-piperidin-1-ylmethylcyclohexyl)nicotinamide]
40.3	NCCC(O)C1CCC(NC(=O)c2ccc(-c3cccc(F)c3)nc2)CC1 (stereo not drawn) [Example 154, N-[4-(3-Amino-1-hydroxypropyl)cyclohexyl]6-(3-fluorophenyl)nicotinamide hydrochloride]
97.8	N[C@H]1CC[C@@H](NC(=O)c2ccc(-c3cccc(F)c3)nc2)CC1 [Example 155, N-(cis-4-Aminocyclohexyl)-6-(3-fluorophenyl)nicotinamide]
11.5	O=C(N[C@H]1CC[C@@H](C(=O)N2CCN(CCO)CC2)C1)c1ccc(-c2cccc(F)c2)nc1 [Example 156, 6-(3-fluorophenyl)-N-[(1S,3R)-3-{[4-(2-hydroxyethyl)piperazin-1-yl]carbonyl}cyclopentyl]nicotinamide]
5.8	CCN(C)C(=O)[C@@H]1CC[C@H](NC(=O)c2ccc(-c3cccc(F)c3)nc2)C1 [Example 157, N-{(1S,3R)-3-[ethyl(methyl)carbamoyl]cyclopentyl}-6-(3-fluorophenyl)nicotinamide]
4.9	O=C(N[C@H]1CC[C@@H](C(=O)N2CC[C@H](F)C2)C1)c1ccc(-c2cccc(F)c2)nc1 [Example 159, 6-(3-fluorophenyl)-N-[(1S,3R)-3-{[(3S)-3-fluoropyrrolidin-1-yl]carbonyl}cyclopentyl]nicotinamide]
11.2	O=C(N[C@H]1CC[C@@H](C(=O)NC2CC2)C1)c1ccc(-c2cccc(F)c2)nc1 [Example 160, N-[(1S,3R)-3-(cyclopropylcarbamoyl)cyclopentyl]-6-(3-fluorophenyl)nicotinamide]
4.1	O=C(N[C@H]1CC[C@@H](C(=O)N2CC[C@@H](F)C2)C1)c1ccc(-c2cccc(F)c2)nc1 [Example 161, 6-(3-fluorophenyl)-N-[(1S,3R)-3-{[(3R)-3-fluoropyrrolidin-1-yl]carbonyl}cyclopentyl]nicotinamide]
22.7	CC(C)(O)[C@@H]1CC[C@H](NC(=O)c2ccc(-c3cccc(F)c3)nc2)C1 [Example 162, 6-(3-fluorophenyl)-N-[(1S,3R)-3-(1-hydroxy-1-methylethyl)cyclopentyl]nicotinamide]
6.1	CN(C)C(=O)[C@@H]1CC[C@H](NC(=O)c2ccc(-c3cccc(F)c3)nc2)C1 [Example 163, N-[(1S,3R)-3-(Dimethylcarbamoyl)cyclopentyl]-6-(3-fluorophenyl)nicotinamide]
16.1	C[C@H](CO)NC(=O)[C@@H]1CC[C@H](NC(=O)c2ccc(-c3cccc(F)c3)nc2)C1 [Example 164, 6-(3-Fluorophenyl)-N-{(1S,3R)-3-[(2-hydroxy-1-methylethyl)carbamoyl]cyclopentyl}nicotinamide]
